According to patent US20050058745A1, “Use of Labiatae herb preparations for extending the flavor shelf life of malt beverages” (priority 2003, published 2005):

Tests used:
[1] = DCIP redox potential of the beer of Example 1, with added air; format: physicochemical; conditions: 20 ppm CA, Plus Air
Description: A 10 mg/mL solution of carnosic acid was prepared by taking 250 mg of 100% pure crystal by HPLC and diluting to a total volume of 25 mL with ethanol.
The bottle dosing process from Example 1 was modified to allow for the inclusion of air. • A bottle of the beer was opened, struck sharply on the top to induce foaming (called “fobbing”), and crowned. The fobbing excludes air. The bottle was swirled and inverted. This sample was designated No CA, No Air. • A bottle was opened and dosed with 7.1 mg of CA (20 ppm) to a 12 oz bottle from 710 μL of the above solution. After addition we gave the headspace two puffs of air, from a 25 mL squeeze bulb. The bottle was crowned, swirled and inverted without fobbing. […]
A standard solution of […] sodium salt (DCIP) at a concentration of 145 mg/dL was prepared by the method described in Methodensammlung der Mitteleuropäischen Brautechnischene Analösen Kommission, Vierte Ausgabe 2002, Editor Prof. […] The concentration of DCIP in mg/dL was measured by multiplying the mL of titer by 14.5. […]
The beers were stored in a 39° C. box for 14 days. […] The beers to be analyzed (the four treatments above) were degassed by centrifuging at 6,000 rpm for 15 min. […] Some of the degassed beer was poured to fill a 1 cm cuvette and placed in a spectrophotometer set to record the absorbance at 520 nm. […]
The “Redox Potential” was calculated by using the formula: [formula]

[2] = DCIP redox potential vs CA concentration, light beer; format: physicochemical; conditions: 4 hr, 2-4° C.
Description: The light beer was purchased at a local market and was 2 months old at time of use. Carnosic acid was added via a 1% ethanol solution made with pure CA. The levels of addition were 0, 5, 10, 15 and 20 ppm. The beers were opened, additions made and the beers were fobbed and crowned as described in Example 4. All analyses were done in triplicate using the DCIP method as described in Example 4. The samples were refrigerated for approx. 4 hr before being degassed and analyzed.

[3] = Trained panel flavor evaluation, commercial Pilsener, forced aging
Description: Separate solutions containing 2% pure rosmarinic acid or pure carnosic acid were prepared by weighing out 500 mg of each compound into separate volumetric flasks and diluting to 25 mL with 100% EtOH.
The beer used in this study was purchased at a local market with a production date of 36 days prior to use. Bottle additions were done as follows: • 1. A bottle of the beer was opened, struck sharply on the top to induce foaming (called “fobbing”), and crowned. The fobbing excludes air. The bottle was swirled and inverted. This sample was designated “No Additions.” • 2. Bottles of beer were opened and an aliquot of either the rosmarinic acid or carnosic acid solutions or a combination of each was added in an amount to give the correct addition rate. The bottle was then fobbed, as above and crowned. It was then swirled and inverted. The samples were designated appropriately to reflect the additive and concentration.
The bottles were placed in a heated room at 40±1° C. in the dark for varying amounts of time. After the allotted aging time, the bottles of beer were transferred to a dark refrigerator and stored at approximately 2° to 4° C. until they were analyzed. Additional bottles from the same code were kept unopened in 2° to 4° C. storage. These unopened samples from the same beer code were labeled “Fresh Control” used to provide fresh samples for the trained panel.
At the appropriate times, a trained 7- or 8-member panel evaluated the beers. In the first study panels, the fresh sample was not identified. Members rated beers for nine attributes that are characteristic for beer: Malt, Yeast, Estery, Hops, Sweet, Stale/Oxidized, Sour/Acid, Solvent (Chemical), and Bitterness. The panel never evaluated more than four beers at a session. The ratings are shown below.

[4] = 3-Methylbutanal in headspace of aged beer; format: physicochemical; conditions: 20 ppm (RA + CA: 10 ppm each)
Description: The highly hopped beer from example 2 was treated with solutions of carnosic acid in ethanol, rosmarinic acid in ethanol or a mixture of carnosic acid and rosmarinic acid in ethanol as done previously. […] The bottles were fobbed to exclude air and crowned. • 3. “20 ppm CA+air” in which bottles were opened and 20 ppm CA added as above. These bottles received two puffs of air in the remaining headspace from a 25 mL bulb. They were crowned without fobbing • 4. “20 ppm RA” in which bottles were opened and 20 ppm rosmarinic acid added from a 2% solution. The bottles were fobbed and crowned. • 5. “20 ppm RA+air” which was done as in No. 4, with 20 ppm RA added. These bottles received the two puffs of air and were crowned without fobbing. • 6. “10 ppm RA+10 ppm CA” in which bottles were opened and 10 ppm each of carnosic and rosmarinic acids were added from pure solutions (178 μL of 2% solution per 12 oz bottle). Bottles were fobbed and crowned. • 7. “10 ppm RA+10 ppm CA+air” in which 10 ppm each of RA and CA was added. This treatment received two puffs of air and was not fobbed before closing. • 8. “Control+air” in which bottles were opened, given two puffs of air and crowned without fobbing. • 9. “Control” in which bottles were opened, fobbed and crowned. Treatments 2 through 9 were stored in a 40° C. hot room. At various times, bottles were opened and samples analyzed for phenylacetaldehyde and 3-methylbutanal by the method of “[…], et al. The results are shown in Table 19.

Row | SMILES | Redox Initial [1] | Redox After 14 Days ([1]; 39° C.) | Redox Potential ([2]; 5 ppm CA) | Redox Potential ([2]; 10 ppm CA) | Redox Potential ([2]; 15 ppm CA) | Redox Potential ([2]; 20 ppm CA) | ranking (normalized sum of preference, 1 most preferred, 4 least preferred) ([3]; 5 ppm CA, 1 week 40° C.) | ranking (normalized sum of preference, 1 most preferred, 4 least preferred) ([3]; 10 ppm CA, 1 week 40° C.) | ranking (normalized sum of preference, 1 most preferred, 4 least preferred) ([3]; 20 ppm CA, 1 week 40° C.) | ranking (normalized sum of preference, 1 most preferred, 4 least preferred) ([3]; 20 ppm CA, 2 weeks 40° C.) | 3-Methylbutanal in the headspace of aged beer ([4]; Day 0, 40° C., + air) [Parts per million] | 3-Methylbutanal in the headspace of aged beer ([4]; Day 0, 40° C., no air) [Parts per million] | 3-Methylbutanal in the headspace of aged beer ([4]; Day 3, 40° C., + air) [Parts per million] | 3-Methylbutanal in the headspace of aged beer ([4]; Day 3, 40° C., no air) [Parts per million] | 3-Methylbutanal in the headspace of aged beer ([4]; Day 7, 40° C., + air) [Parts per million] | 3-Methylbutanal in the headspace of aged beer ([4]; Day 7, 40° C., no air) [Parts per million] | 3-Methylbutanal in the headspace of aged beer ([4]; Day 14, 40° C., + air) [Parts per million] | 3-Methylbutanal in the headspace of aged beer ([4]; Day 14, 40° C., no air) [Parts per million] | 3-Methylbutanal in the headspace of aged beer ([4]; Day 21, 40° C., + air) [Parts per million] | 3-Methylbutanal in the headspace of aged beer ([4]; Day 21, 40° C., no air) [Parts per million]
1 | CC(C)c1cc2c(c(O)c1O)[C@@]1(C(=O)O)CCCC(C)(C)[C@@H]1CC2 [CA, carnosic acid] | 37.0 | 33.8 | 28.1 | 40.5 | 51.6 | 67.4 | 2.6 | 2.4 | 2.3 | 2.1 | 3.44 | 3.24 | 3.85 | 3.13 | 3.68 | 2.98 | 3.45 | 1.82 | 5.09 | 4.66
2 | O=C(/C=C/c1ccc(O)c(O)c1)O[C@H](Cc1ccc(O)c(O)c1)C(=O)O [RA, rosmarinic acid] | – | – | – | – | – | – | – | – | – | – | 3.13 | 4.12 | 4.14 | 3.05 | 3.95 | 2.73 | 4.28 | 3.03 | 5.06 | 4.85
